Data taken from patent US20020049199A1, “N-linked carbamates and ureas of heterocyclic thioesters” (priority 1996, published 2002).
Where two headings read alike, the source gives them in different places.

Legend:
[1] = biological target: FKBP (Homo sapiens, UniProt P62942); assay: Ki test procedure: inhibition of peptidyl-prolyl isomerase (rotamase) activity, chymotrypsin-coupled assay; format: biochemical; details: apparent Ki
Excerpt: Inhibition of the peptidyl-prolyl isomerase (rotamase) activity of the inventive compounds can be evaluated by known methods described in the literature (Harding, et al., Nature, 1989, 341:758-760; Holt et al. J. Am. Chem. Soc., 115:9923-9938). The cis-trans isomerization of an alanine-proline bond in a model substrate, N-succinyl-Ala-Ala-Pro-Phe-p-nitroanilide, is monitored spectrophotometrically in a chymotrypsin-coupled assay, which releases para-nitroanilide from the trans form of the substrate. The inhibition of this reaction caused by the addition of different concentrations of inhibitor is determined, and the data is analyzed as a change in first-order rate constant as a function of inhibitor concentration to yield the apparent Ki values.
In a plastic cuvette are added […] of ice cold assay buffer (25 mM HEPES, pH 7.8, 100 mM NaCl), […] of FKBP (2.5 mM in 10 mM Tris-Cl pH 7.5, 100 mM NaCl, 1 mM dithiothreitol), 25 mL of chymotrypsin (50 mg/ml in 1 mM HCl) and […] of test compound at various concentrations in dimethyl sulfoxide. The reaction is initiated by the addition of 5 mL of substrate (succinyl-Ala-Phe-Pro-Phe-para-nitroanilide, 5 mg/mL in 2.35 mM LiCl in trifluoroethanol).
The absorbance at 390 nm versus time is monitored for 90 seconds using a spectrophotometer and the rate constants are determined from the absorbance versus time data files.
The data for these experiments for representative compounds are presented in Table II under the column “Ki”.

[2] = tested on: chick dorsal root ganglia; assay: Chick dorsal root ganglion cultures and neurite outgrowth; format: cell-based; details: neurite outgrowth, 48 hours after drug treatment, Table II (b), ranked potency, read-out: ED50, nMa
Protocol: Dorsal root ganglia were dissected from chick embryos of ten day gestation. Whole ganglion explants were cultured on thin layer Matrigel-coated 12 well plates with Liebovitz L15 plus high glucose media supplemented with 2 mM glutamine and 10% fetal calf serum, and also containing 10 μM cytosine β-D arabinofuranoside (Ara C) at 37° C. in an environment containing 5% CO2. Twenty-four hours later, the DRGs were treated with various immunophilin ligands. Forty-eight hours after drug treatment, the ganglia were visualized under phase contrast or Hoffman Modulation contrast with a Zeiss Axiovert inverted microscope. Photomicrographs of the explants were made, and neurite outgrowth was quantitated. Neurites longer than the DRG diameter were counted as positive, with total number of neurites quantitated per each experimental condition. Three to four DRGs are cultured per well, and each treatment was performed in duplicate.
The data for these experiments for representative compounds are presented in Table II under the column “ED50”.

Chain of FKBP (P62942 whole entry): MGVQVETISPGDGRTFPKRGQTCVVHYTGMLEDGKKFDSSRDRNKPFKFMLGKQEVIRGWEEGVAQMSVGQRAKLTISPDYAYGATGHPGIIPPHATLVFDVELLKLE

| Compound | Ki ([1]; Table II (c), numerical) | EC50 [2] | Ki ([1]; Table II (a), ranked potency) | further results |
| --- | --- | --- | --- | --- |
| 3,3-Diphenylpropyl (2S)-1-[(1,1,3,3-tetramethylbutyl)carbamoyl]-2-pyrrolidinecarbothioate [Compound 29] | 5150 nM | 51 to 200 nM |  |  |
| 3,3-Diphenylpropyl (2S)-1-[(2,4-dimethoxyphenyl)carbamoyl]-2-pyrrolidinecarbothioate [Compound 33] |  |  | > 500 nM |  |
| 3-(2,3,5-Trimethylphenyl)propyl 1-(1-adamantylcarbamoyl)-2-pyrrolidinecarbothioate [Compound 19] |  | 51 to 200 nM | 201 to 500 nM |  |
| 3-(2,3,5-Trimethylphenyl)propyl 1-(cyclohexylcarbamoyl)-2-pyrrolidinecarbothioate [Compound 20] |  | 1 to 50 nM | 51 to 200 nM |  |
| 3-(2-Fluorophenyl)propyl (2S)-1-(1-adamantylcarbamoyl)-2-pyrrolidinecarbothioate [Compound 22] |  | < 1 nM | 1 to 50 nM |  |
| 3-(2-Fluorophenyl)propyl (2S)-1-(cyclohexylcarbamoyl)-2-pyrrolidinecarbothioate [Compound 23] |  | 1 to 50 nM | 1 to 50 nM |  |
| 3-(3,4,5-Trimethoxyphenyl)propyl (2S)-1-(benzylcarbamoyl)-2-pyrrolidinecarbothioate [Compound 40] | 82 nM |  |  |  |
| 3-(3,4,5-Trimethoxyphenyl)propyl (2S)-1-(hexylcarbamoyl)-2-pyrrolidinecarbothioate [Compound 39] | 31 nM |  |  |  |
| 3-(3,5-Dimethoxyphenyl)propyl (2S)-1-{[(1S)-1-(1-naphthyl)ethyl]-carbamoyl}-2-pyrrolidinecarbothioate [Compound 28] | 8090 nM | < 1 nM |  |  |
| 3-(3,5-Dimethoxyphenyl)propyl (2S)-1-{[(1S,2R)-2-phenyl-cyclopropyl]carbamoyl]-2-pyrrolidinecarbothioate [Compound 34] |  |  | > 500 nM |  |
| 3-(3-Fluorophenyl)propyl (2S)-1-(Cyclohexylcarbamoyl)-2-pyrrolidinecarbothioate [Compound 21] |  | < 1 nM | 1 to 50 nM |  |
| 3-(4-Methylphenyl)propyl (2S)-1-(1-adamantylcarbamoyl)-2-pyrrolidinecarbothioate [Compound 25] | 209 nM | 1 to 50 nM |  |  |
| 3-(4-Methylphenyl)propyl (2S)-1-(cyclohexylcarbamoyl)-2-pyrrolidinecarbothioate [Compound 24] | 605 nM | 1 to 50 nM |  |  |
| 3-(4-Methylphenyl)propyl (2S)-1-(tert-butylcarbamoyl)-2-pyrrolidinecarbothioate [Compound 26] | 739 nM | < 1 nM |  |  |
| 3-Cyclohexylpropyl (2S)-1-(hexylcarbamoyl)-2-pyrrolidinecarbothioate [Compound 32] |  |  | > 500 nM |  |
| 3-Cyclohexylpropyl (2S)-1-[(2,6-diisopropylphenyl)carbamoyl]-2-pyrrolidinecarbothioate [Compound 31] |  |  | > 500 nM |  |
| 3-Phenylpropyl (2S)-1-(1-adamantylcarbamoyl)-2-pyrrolidinecarbothioate [Compound 36] |  |  | 201 to 500 nM |  |
| 3-Phenylpropyl (2S)-1-(1-cyclohexylcarbamoyl)-2-pyrrolidinecarbothioate [Compound 17] |  | 51 to 200 nM |  | Ki ([1]; Table II (a), ranked potency, listed as 4): 51 to 200 nM |
| 3-Phenylpropyl (2S)-1-(1-cyclohexylcarbamoyl)-2-pyrrolidinecarbothioate [Compound 37] |  |  |  | Ki ([1]; Table II (a), ranked potency, listed as 23): > 500 nM |
| 3-Phenylpropyl (2S)-1-(1-pyrrolidinylcarbamoyl)-2-pyrrolidinecarbothioate [Compound 42] | 525 nM |  |  |  |
| 3-Phenylpropyl (2S)-1-(dimethylcarbamoyl)-2-pyrrolidinecarbothioate [Compound 41] | 722 nM |  |  |  |
| 3-Phenylpropyl (2S)-1-[(2,4-Dimethoxyphenyl)carbamoyl]-2-pyrrolidinecarbothioate [Compound 35] |  |  | > 500 nM | Ki ([1]; Table II (c), numerical, listed as 21): 795 nM |
| CCC(C)CNC(=O)N1CCC[C@H]1C(=O)SCCCc1cccnc1 (stereo partly drawn) [Compound 1, 3-(3-Pyridyl)-1-propylmercaptyl 2S-1-[(2-methylbutyl)carbamoyl]pyrrolidine-2-carboxylate] |  |  | 1 to 50 nM | EC50 ([2]; Gallus gallus): < 1 nM |
| CCC(C)(C)NC(=O)N1CCC[C@H]1C(=O)SCCCc1cccnc1 [Compound 2] |  |  | 51 to 200 nM | EC50 ([2]; Gallus gallus): 1 to 50 nM |
| O=C(SCCCc1cccnc1)[C@@H]1CCCN1C(=S)NC1CCCCC1 [Compound 7, 3-(3-pyridyl)-1-propylmercaptyl 2S-1-[(cyclohexyl)thiocarbamoyl]-pyrrolidine-2-carboxylate] |  | 1 to 50 nM | 51 to 200 nM |  |
| O=C(SCCCc1ccccc1Cl)[C@@H]1CCCN1C(=O)NC1CCCCC1 [Compound 27] | 1490 nM | 1 to 50 nM |  |  |
| O=C(SCCCc1ccccc1)[C@@H]1CCCN1C(=S)NC12CC3CC(CC(C3)C1)C2 [Compound 38] | 659 nM |  |  |  |
| O=C(SCCCc1ccccc1)[C@@H]1CCCN1C(=O)N1CCOCC1 [Compound 43, 3-Phenylpropyl (2S)-1-(morphilinocarbamoyl)-2-pyrrolidinecarbothioate] | 3740 nM |  |  |  |
| Phenethyl (2S)-N-(cyclohexylcarbamoyl)-2-pyrrolidinecarbothioate [Compound 18] |  | 1 to 50 nM | 51 to 200 nM |  |
